Test results taken from patent US20130338142A1, “IMIDAZOPYRAZINE SYK INHIBITORS” (Gilead Connecticut, Inc., priority 2012, published 2013).

Biological target: Syk (Homo sapiens, UniProt P43405)
Assay: High throughput Syk assay (TR-FRET, KinEASE)
Assay type: biochemical
Details: Syk TR-FRET assay of Example B2; 3 μM ATP, 0.5 nM Syk
Description: The following high throughput Syk assay was performed on the compounds of Table 1 as follows.
Syk activity was measured by detecting phosphorylated peptide substrate formation using antibody against phosphorylated peptide substrate. This is a time-resolved fluorescence resonance energy transfer (TR-FRET) immunoassay, based on the KinEASE Assay (Cisbio). […] Test compounds (in DMSO) were spotted into 384 well plates using a Labcyte® Echo 550 Liquid Handling System prior to addition of Syk enzyme and peptide substrate. Reaction solutions were delivered using a Multi-Flo (Bio-Tek Instruments). The enzyme and peptide solution was incubated with compound for 60 minutes at room temp before the reaction was initiated by the addition of ATP. […] The europium donor was excited using a 340-nm excitation filter with a 30-nm band pass. Energy transfer to the tracer was measured using a filter centered at 665 nm with a 10 nm bandpass. This signal was then referenced to the emission from europium peak, using a 615 nm, 10-nm bandpass filter. The “emission ratio” was calculated as the 665 nm signal divided by the 615 nm signal. Percentage of inhibition was calculated as below:
% Inhibition=100×(RatioSample−Ratio0% Inhibition)/(Ratio100% Inhibition−Ratio0% Inhibition)

| IC50 [nM] | Structure (SMILES) |
| --- | --- |
| 6 | COc1cc(Nc2nc(-c3ccc4c(c3)C(=O)NCCO4)cn3ccnc23)ccc1N1CCOCC1 [Compound 2, 7-(8-((3-methoxy-4-morpholinophenyl)amino)imidazo [1,2-a]pyrazin-6-yl)-3,4-dihydrobenzo[f][1,4]oxazepin-5(2H)-one] |
| 6 | C[C@H](O)[C@H]1CN(c2ccc(Nc3nc(-c4cnc5c(c4)NCCO5)cn4ccnc34)cc2)CCO1 [Compound 5, (S)-1-((R)-4-(4-((6-(2,3-dihydro-1H-pyrido[2,3-b][1,4]oxazin-7-yl)imidazo[1,2-a]pyrazin-8-yl)amino)phenyl)morpholin-2-yl)ethanol] |
| 7 | COc1cc(Nc2nc(-c3ccc4c(c3)OCCN4)cn3ccnc23)ccc1N1CCN(C2COC2)CC1 [Compound 6, 6-(3,4-dihydro-2H-benzo[b][1,4]oxazin-7-yl)-N-(3-methoxy-4-(4-(oxetan-3-yl)piperazin-1-yl)phenyl)imidazo[1,2-a]pyrazin-8-amine] |
| 6 | COc1cc(Nc2nc(-c3ccc4c(c3)NCCO4)cn3ccnc23)ccc1N1CC[C@@H](N)C1 [Compound 9, (R)-N-(4-(3-aminopyrrolidin-1-yl)-3-methoxyphenyl)-6-(3,4-dihydro-2H-benzo[b][1,4]oxazin-6-yl)imidazo[1,2-a]pyrazin-8-amine] |
| 4 | COc1cc(Nc2nc(-c3cnc4c(c3)NCCO4)cn3ccnc23)ccc1N1CCN(CC2(C)COC2)CC1 [Compound 28, 6-(2,3-dihydro-1H-pyrido[2,3-b][1,4]oxazin-7-yl)-N-(3-methoxy-4-(4-((3-methyloxetan-3-yl)methyl)piperazin-1-yl)phenyl)imidazo[1,2-a]pyrazin-8-amine] |
| 2 | COc1cc(Nc2nc(-c3cnc4c(c3)NCCO4)cn3ccnc23)ccc1OC1COC1 [Compound 30, 6-(2,3-dihydro-1H-pyrido[2,3-b][1,4]oxazin-7-yl)-N-(3-methoxy-4-(oxetan-3-yloxy)phenyl)imidazo[1,2-a]pyrazin-8-amine] |
| 4 | CC(=O)N1CCN(c2ccc(Nc3nc(-c4cnc5c(c4)NCCO5)cn4ccnc34)cc2)CC1 [Compound 34] |
| 2 | COc1cc(Nc2nc(-c3cnc4c(c3)NCCO4)cn3ccnc23)ccc1N(C)C [Compound 35, N4-(6-(2,3-dihydro-1H-pyrido[2,3-b][1,4]oxazin-7-yl)imidazo[1,2-a]pyrazin-8-yl)-2-methoxy-N1,N1-dimethylbenzene-1,4-diamine] |
| 8 | CC(C)n1cc(Nc2nc(-c3cnc4c(c3)NCCO4)cn3ccnc23)cn1 [Compound 36, 6-(2,3-dihydro-1H-pyrido[2,3-b][1,4]oxazin-7-yl)-N-(1-isopropyl-1H-pyrazol-4-yl)imidazo[1,2-a]pyrazin-8-amine] |
| 7 | c1cn2cc(-c3cnc4c(c3)NCCO4)nc(Nc3ccc(C4CCOCC4)cc3)c2n1 [Compound 39, 6-(2,3-dihydro-1H-pyrido[2,3-b][1,4]oxazin-7-yl)-N-(4-(tetrahydro-2H-pyran-4-yl)phenyl)imidazo[1,2-a]pyrazin-8-amine] |
| 21 | COc1cc(Nc2nc(-c3cnc4c(c3)NCCO4)cn3ccnc23)ccc1-n1ccnc1 [Compound 40, N-(4-(1H-imidazol-1-yl)-3-methoxyphenyl)-6-(2,3-dihydro-1H-pyrido[2,3-b][1,4]oxazin-7-yl)imidazo[1,2-a]pyrazin-8-amine] |
| 9 | c1cn2cc(-c3cnc4c(c3)NCCO4)nc(Nc3ccc4c(c3)OC[C@H]3COCCN43)c2n1 [Compound 43, (R)-N-(6-(2,3-dihydro-1H-pyrido[2,3-b][1,4]oxazin-7-yl)imidazo[1,2-a]pyrazin-8-yl)-2,4,4a,5-tetrahydro-1H-benzo[b][1,4]oxazino[4,3-d][1,4]oxazin-8-amine] |

| Structure (SMILES) | IC50 [nM] |
| --- | --- |
| COc1cc(Nc2nc(-c3cnc4c(c3)NCCO4)cn3ccnc23)ccc1OC1CCC1 [Compound 29, N-(4-cyclobutoxy-3-methoxyphenyl)-6-(2,3-dihydro-1H-pyrido[2,3-b][1,4]oxazin-7-yl)imidazo[1,2-a]pyrazin-8-amine] | 7 |
